We go through two compounds from patent US9103791B1, “Thallium fluorescent ion indicator and assay” (Vanderbilt University, priority 2012, dated 2015).

Data set [1] has as its system HEK-293 cells stably transfected with hERG potassium channels. Put plainly: "No-wash" protocol thallium flux fluorescence assay. Type of data set: cell-based. The note with it: no-wash protocol with 1.25 mM probenecid; range of dofetilide concentrations; compared to FluoZin-2, AM. The method, then: The no-wash protocol was conducted as follows. To a 384-well, black-wall, clear bottom, poly-D-lysine coated plate, add 20 μl/well of α-MEM containing 10% fetal bovine serum and 1× glutaGRO (Cell Culture Medium) and a 1000 cell/μl suspension of HEK-293 cells stably transfected with hERG potassium channels (Cell Plate). Incubate the Cell Plate overnight in a 5% CO2 cell culture incubator at 37° C. Remove the Cell Culture Medium from the Cell Plate and replace it with 20 μl/well Hanks Balanced Salt Solution+20 mM HEPES pH 7.3+1.25 mM Probenecid (sodium salt) (NW-Assay Buffer). Dissolve 25 μg thallium ion indicator (also referred to herein as a “dye”) in 25 μl DMSO containing 7% (w/v) Pluronic F-127. Add 12.5 μl of the dissolved thallium ion indicator to 10 ml Probenecid Assay Buffer (NW-Dye Loading Solution). Add 20 μl/well of Dye Loading Solution to the Cell Plate. […] Analyze data representing the amplitude of the fluorescent signal for each well at each of the 120 time points acquired during the Data Acquisition Protocol using Microsoft Excel by first dividing the fluorescence values from each individual well at each time point by the fluorescent value for that well at the first time point (Normalized Fluorescence Values). Calculate slopes of the Normalized Fluorescence Values between the 12 second and 22 second time points (Slope Values). […]

Data set [2] shares this test system. Put plainly: "Wash" protocol thallium flux fluorescence assay. The note with it: range of dofetilide concentrations, slopes of normalized fluorescence 12-22 s, compared between indicators. Type of data set: cell-based. As for the experimental part: The wash protocol experiment was conducted as follows. To a 384-well, black-wall, clear bottom, poly-D-lysine coated plate, add 20 μl/well of α-MEM containing 10% fetal bovine serum and 1× glutaGRO (Cell Culture Medium) and a 1000 cell/μl suspension of HEK-293 cells stably transfected with hERG potassium channels (Cell Plate). Incubate the Cell Plate overnight in a 5% CO2 cell culture incubator at 37° C. Remove the Cell Culture Medium from the Cell Plate and replace it with 20 μl/well Hanks Balanced Salt Solution+20 mM HEPES pH 7.3 (Assay Buffer). Dissolve 25 μg of thallium ion indicator (also referred to as a “dye”) in 25 μl DMSO containing 7% (w/v) Pluronic F-127. Add 12.5 μl of the dissolved thallium ion indicator to 10 ml Assay Buffer (Dye Loading Solution). Add 20 μl/well of Dye Loading Solution to the Cell Plate. Incubate the Cell Plate containing Dye Loading Solution for 1 hour at room temperature. […] Analyze data representing the amplitude of the fluorescent signal for each well at each of the 120 time points acquired during the Data Acquisition Protocol using Microsoft Excel by first dividing the fluorescence values from each individual well at each time point by the fluorescent value for that well at the first time point (Normalized Fluorescence Values). Calculate slopes of the Normalized Fluorescence Values between the 12 second and 22 second time points (Slope Values). […]

Regarding `COc1cc(NC(=O)c2ccc3c(c2)C(=O)OC32c3ccc(OC(C)=O)cc3Oc3cc(OC(C)=O)ccc32)ccc1N(CC(=O)OCOC(C)=O)CC(=O)OCOC(C)=O` [Example 1, bis(acetoxymethyl) 2,2′-((4-(3′,6′-diacetoxy-3-oxo-3H-spiro[isobenzofuran-1,9′-xanthen]-5-ylcarboxamido)-2-methoxyphenyl)azanediyl)diacetate], in data set [1], the “normalized signal amplitude (FIG. 2)” value was “substantial and unexpected improvement in normalized signal amplitude over FluoZin-2, AM”. Further, in data set [2], the “fluorescence results (indicator performance, FIG. 1)” value was “essentially indistinguishable”.
On to `COc1cc(NC(=O)c2ccc3c(c2)C(=O)OC32c3cc(F)c(OC(C)=O)cc3Oc3cc(OC(C)=O)c(F)cc32)ccc1N(CC(=O)OCOC(C)=O)CC(=O)OCOC(C)=O` [FluoZin-2, AM, reference compound], for which the “fluorescence results (indicator performance, FIG. 1)” value in data set [2] is given as “essentially indistinguishable”.
